Data from PubChem BioAssay AID1117355 (Cheminformatics & Chemogenomics Research Group (CCRG), …, 2015).
Active and inactive are the calls of the source. How the calls were made is not given here.

Biological target: Glycogen synthase kinase-3 beta (Homo sapiens) (UniProt P49841)
Test: NPC library primary assay, GSK-3β enzyme inhibitors, biochemical, Homo sapiens, LANCE Ultra TR-FRET detection (AID 1117355)
Settings: LANCE Ultra TR-FRET kinase activity; at 20 µM (top of the series)

Chain of Glycogen synthase kinase-3 beta (Homo sapiens) (P49841 whole entry, looked up): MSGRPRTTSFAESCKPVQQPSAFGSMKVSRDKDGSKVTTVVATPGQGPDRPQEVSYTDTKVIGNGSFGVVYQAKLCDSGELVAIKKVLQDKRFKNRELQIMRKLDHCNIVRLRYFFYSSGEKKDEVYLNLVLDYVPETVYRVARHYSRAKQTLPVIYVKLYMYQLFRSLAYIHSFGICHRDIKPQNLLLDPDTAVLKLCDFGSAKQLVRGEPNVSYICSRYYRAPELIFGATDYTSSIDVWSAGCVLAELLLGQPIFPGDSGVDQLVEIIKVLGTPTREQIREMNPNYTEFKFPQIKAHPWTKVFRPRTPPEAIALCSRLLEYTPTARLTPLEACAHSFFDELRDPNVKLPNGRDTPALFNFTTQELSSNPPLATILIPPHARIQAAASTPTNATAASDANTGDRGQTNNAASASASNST

inhibition, inactive:
CCCOc1ccc2nc(NC(=O)OC)[nH]c2c1 -5.09%
O=c1c(-c2ccccc2)c1-c1ccccc1 31.4%
COCc1c(C(C)C)nc(C(C)C)c(/C=C/[C@@H](O)C[C@@H](O)CC(=O)O)c1-c1ccc(F)cc1 3.27%
